Patent US10676514B2, “CDCA1-derived peptide and vaccine containing same” (ONCOTHERAPY SCIENCE, INC., priority 2014, dated 2020)
Entries after “also recorded” stand apart in the source; their conditions may differ.

Columns and labels:
[1] = system: peptide-pulsed C1R-A11 cells; test: IFN-gamma ELISPOT assay of peptide-induced CTLs (HLA-A*1101); assay type: cell-based, human; conditions: CTLs induced from HLA-A*1101-positive donors, peptide-pulsed C1R-A11 vs control
In short: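 CD8+ T cells from HLA-A*1101-positive healthy donors stimulated three times (days 0, 7, 14) with autologous monocyte-derived DCs pulsed with 20 μg/ml peptide, with IL-7 and IL-2. On day 21, CTL lines and clones tested by IFN-γ ELISPOT against peptide-pulsed C1R-A11 stimulators (1×10^4 cells/well).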

[2] = system: COS7 cells transfected with CDCA1 and HLA-A*0301; test: Specific CTL activity against target cells expressing CDCA1 and HLA-A*0301; assay type: cell-based, African green monkey; conditions: for specific CTL activity of CTL clones: COS7 cells transfected with both CDCA1 and HLA-A*0301; for specific CTL activity of CTL clones against control cells: COS7 cells transfected with either full-length CDCA1 or HLA-A*0301
From the text: A cDNA encoding the open-reading frame of a target gene or HLA-A*0301 was amplified by PCR. The PCR-amplified product was cloned into an expression vector. Either or both of the target gene-expressing vector and the HLA-A*0301-expressing vector were transfected into COS7, which is a cell line negative for the target gene and HLA, using Lipofectamine 2000 (Invitrogen) following the manufacturer's recommended protocol. Two days after transfection, the transfected cells were harvested using versene (Invitrogen), and used as the target cell for CTL activity assay (5×10^4 cells/well).
The CTL clones established against CDCA1-A03-9-219 (SEQ ID NO: 7) (a) and CDCA1-A03-10-400 (SEQ ID NO: 38) (b) were investigated for their ability to recognize target cells expressing CDCA1 and the HLA-A*0301 molecule. COS7 cells transfected with both full-length CDCA1 and the HLA-A*0301 gene (a specific model of target cells expressing CDCA1 and the HLA-A*0301 gene) were prepared as the target cell. COS7 cells transfected with either full-length CDCA1 or HLA-A*0301 were prepared as the control.

| Sequence | peptide-specific CTL activity (IFN-gamma production) ([1]; listed as CDCA1-A11-10-400) | specific CTL activity of CTL clones ([2]; listed as CDCA1-A03-10-400) | specific CTL activity of CTL clones against control cells ([2]; listed as CDCA1-A03-10-400) | peptide-specific CTL activity (IFN-gamma production) ([1]; listed as CDCA1-A11-9-219) | specific CTL activity of CTL clones ([2]; listed as CDCA1-A03-9-219) | specific CTL activity of CTL clones against control cells ([2]; listed as CDCA1-A03-9-219) |
| --- | --- | --- | --- | --- | --- | --- |
| KIKLGIQQLK (a peptide derived from CDCA1) [SEQ ID NO: 38] | potent IFN-gamma production; also recorded: significant specific CTL activity | specific CTL activity; also recorded: potent CTL activity | a significant specific CTL activity was not shown; also recorded: a significant specific CTL activity was not detected |  |  |  |
| KTKRLNELK (a peptide derived from CDCA1) [SEQ ID NO: 7] |  |  |  | potent IFN-gamma production; also recorded: significant specific CTL activity | specific CTL activity; also recorded: potent CTL activity | a significant specific CTL activity was not shown; also recorded: a significant specific CTL activity was not detected |
